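In this assay, cells in 96-well plates receive the compound at five concentrations for 48 hours. Endpoints are linearly interpolated between the surrounding concentrations. The concentration for 50% growth inhibition is given as GI50.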 Calls of active or inactive are those of the source. No stated cut-off is given here; in the data, active = GI50 up to about 1.1 µM and inactive = higher.
Key:
Test in all cases: NCI-60 cell line screen, 48 h
LOX IMVI = tested on: LOX IMVI
U-251 = tested on: U-251
HCC 2998 = tested on: HCC 2998
SK-MEL-5 = tested on: SK-MEL-5
NCI-H23 = tested on: NCI-H23
SK-MEL-2 = tested on: SK-MEL-2
SF-268 = tested on: SF-268
ACHN = tested on: ACHN
MOLT-4 = tested on: MOLT-4
HOP-62 = tested on: HOP-62
OVCAR-5 = tested on: OVCAR-5
SF-295 = tested on: SF-295
HT-29 = tested on: HT-29
TK-10 = tested on: TK-10
NCI-H226 = tested on: NCI-H226
RXF 393 = tested on: RXF 393

Measured: GI50

Cc1cc(Cl)ccc1NC(=O)/C(=N\NC(C)(C)C)C(C#N)c1nc(-c2ccc([N+](=O)[O-])cc2)cs1 (stereo not given)
inactive: LOX IMVI > 100 µM | U-251 > 100 µM | HCC 2998 > 100 µM | SK-MEL-5 > 100 µM | NCI-H23 > 100 µM | SK-MEL-2 > 100 µM | SF-268 > 100 µM | ACHN > 100 µM | MOLT-4 5.79 µM | HOP-62 > 100 µM | OVCAR-5 > 100 µM | SF-295 > 100 µM | HT-29 > 100 µM | TK-10 > 100 µM | NCI-H226 > 100 µM

CO[C@H](c1ccccc1)[C@H](C)N(C)c1ccc2ccccc2c1C1=NC(C)(C)CO1
inactive: U-251 16 µM | RXF 393 13.8 µM | SK-MEL-5 88.3 µM | NCI-H23 14.8 µM | SK-MEL-2 14.3 µM | SF-268 18.4 µM | ACHN 16 µM | MOLT-4 9.02 µM | HOP-62 21 µM | SF-295 15.5 µM | HT-29 10.7 µM | TK-10 22.9 µM | NCI-H226 16.2 µM

C/C(=N/N)c1ccc2[nH]c3c(C)cc([N+](=O)[O-])c(C)c3c2c1
inactive: LOX IMVI 4.99 µM | HCC 2998 17.5 µM | SK-MEL-5 5 µM | SK-MEL-2 11.3 µM | SF-268 8.22 µM | ACHN 9.38 µM | MOLT-4 2.79 µM | HOP-62 8.07 µM | OVCAR-5 > 10 µM | SF-295 17.1 µM | HT-29 8.2 µM | TK-10 12.2 µM | NCI-H226 14.3 µM

O/N=C1/C(=C/c2ccc(Cl)c(Cl)c2)CCCC1C(NO)c1ccc(Cl)c(Cl)c1 (stereo not given)
inactive: U-251 17.9 µM | RXF 393 19.7 µM | HCC 2998 17.1 µM | SK-MEL-5 18.5 µM | NCI-H23 17.3 µM | SK-MEL-2 17.4 µM | SF-268 23.5 µM | ACHN 18.4 µM | MOLT-4 12.5 µM | HOP-62 20.1 µM | HT-29 16.7 µM | TK-10 19.8 µM

Cc1c(Cl)c2ccccc2n1S(=O)(=O)c1ccccc1
inactive: U-251 88.9 µM | HCC 2998 33.6 µM | SK-MEL-5 32.4 µM | NCI-H23 41.1 µM | SK-MEL-2 28.8 µM | SF-268 64 µM | ACHN 38.1 µM | MOLT-4 37.4 µM | HOP-62 65.5 µM | OVCAR-5 33.5 µM | SF-295 46.5 µM | HT-29 46 µM | TK-10 65.9 µM | NCI-H226 37 µM

O=C1N[C@H](Cc2c[nH]cn2)C(=O)N2CCC[C@@H]12
inactive: LOX IMVI > 100 µM | RXF 393 > 100 µM | HCC 2998 > 100 µM | SK-MEL-5 > 100 µM | NCI-H23 > 100 µM | SK-MEL-2 > 100 µM | SF-268 > 100 µM | ACHN > 100 µM | MOLT-4 > 100 µM | HOP-62 > 100 µM | OVCAR-5 > 100 µM | SF-295 > 100 µM | TK-10 > 100 µM

C[N+](C)(C)CC(=O)N/N=C(/Cc1nc2ccc([N+](=O)[O-])cc2nc1O)C(=O)Nc1cc(C(F)(F)F)ccc1Cl
inactive: RXF 393 > 100 µM | HCC 2998 > 100 µM | SK-MEL-5 > 100 µM | NCI-H23 > 100 µM | SK-MEL-2 > 100 µM | SF-268 > 100 µM | ACHN > 100 µM | MOLT-4 > 100 µM | HOP-62 > 100 µM | OVCAR-5 > 100 µM | SF-295 > 100 µM | HT-29 > 100 µM | TK-10 > 100 µM

Cc1no[n+]([O-])c1/C=N/NS(=O)(=O)c1ccccc1
inactive: U-251 > 100 µM | RXF 393 > 100 µM | HCC 2998 > 100 µM | SK-MEL-5 > 100 µM | NCI-H23 > 100 µM | SK-MEL-2 > 100 µM | SF-268 > 100 µM | MOLT-4 > 100 µM | HOP-62 > 100 µM | OVCAR-5 > 100 µM | HT-29 > 100 µM | TK-10 > 100 µM
